According to US7517998B2, “Non nucleoside reverse transcriptase inhibitors” (priority 2004, dated 2009):
pIC50: −log10 of the molar value.

What follows are molecules tested against T1, K103NNY181C mutant reverse transcriptase (Human immunodeficiency virus type 1 group M subtype B, UniProt P04585, K690N/Y768C) (assay: Reverse transcriptase enzymatic assay (PicoGreen), K103N/Y181C mutant RT). Conditions: IC50 mut (nM), mutant (K103N/Y181C) reverse transcriptase, enzymatic assay of Example 24.
T1 construct: mutations that occur in the reverse transcriptase segment of the pol gene
Format: biochemical, HIV-1
Experimental: The enzymatic assay employed is described as follows: The reverse transcriptase (RT) enzyme assay has been adapted to a 96-well microtiter plate format and uses PicoGreen™ as a fluorescent intercalator. More explicitly, the HIV-1 RT enzyme was thawed and appropriately diluted into Tris/HCl 50 mM pH 7.8 containing NaCl 60 mM, MgCl2.6H2O 2 mM, DTT 6 mM, GSH 2 mM and 0.02% w/v Chaps to give ≈10 nM enzyme. To 10 μL of this enzyme solution was added 10 μL of inhibitor solution (40 μM to 2.032 nM inhibitor in the same assay buffer as above containing 4% v/v DMSO). The plate was pre-incubated for 15 minutes at room temperature before proceeding to the next step. In this pre-incubation step, the highest and lowest inhibitor concentrations were 20 μM and 1.016 nM respectively and the concentration of DMSO was 2% v/v. Then the enzymatic reaction was initiated by addition of 20 μL of substrate solution. The final reaction mixture contained Tris/HCl 50 mM pH 7.8, NaCl 60 mM, MgCl2.6H2O 2 mM, DTT 6 mM, GSH 2 mM, CHAPS 0.02% w/v, DMSO 1% v/v, poly rC 45 nM, dG15 4.5 nM, dGTP 3.6 μM, and 2.5 nM enzyme. In this incubation step, the highest and lowest inhibitor concentrations were 10 μM and 0.508 nM respectively. After addition of the substrate cocktail, the plate was covered with a plastic seal and incubated for 50 minutes at 37° C. in a dry incubator. The reaction was then quenched by addition of 5 μL of EDTA 0.5 M. The plate was shaken for 30 seconds at medium speed and incubated for 5 minutes at room temperature. Then 160 μL of PicoGreen™ 1:400 dilution from commercial stock (diluted in Tris 20 mM pH 7.5 with EDTA 1 mM) was added and the plate was shaken for 30 seconds and incubated for 10 minutes at room temperature. The plate was then analyzed using a POLARstar Galaxy fluorometer (BMG Labtechnologies) with λex and λem of 485 nm and 520 nm respectively. Each well was read for 1.25 second. Each row contained at its extremities a blank and a control well.
Molecule `CC(C)(C)c1ccc(-n2nnnc2SCC(=O)Nc2ccc(NC(=O)Cc3ccncc3)cc2Cl)c(Cl)c1` [Compound 7030] has an IC50 of 38 nM.
For `C#CCCC(=O)Nc1ccc(NC(=O)CSc2nnnn2-c2ccc(C(C)(C)C)cc2Cl)c(Cl)c1` [Compound 7020], the IC50 was 69 nM.
Work on `CC(C)(C)c1ccc(-n2nnnc2SCC(=O)Nc2ccc(NC(=O)CCc3ccccc3)cc2Cl)c(Cl)c1` [Compound 7038] yielded an IC50 of 860 nM.
`CC(C)(C)c1ccc(-n2nnnc2SCC(=O)Nc2ccc(NC(=O)Cc3cccc([N+](=O)[O-])c3)cc2Cl)c(Cl)c1` [Compound 7017] showed an IC50 of 170 nM.
Molecule `CC(C)(C)c1ccc(-n2nnnc2SCC(=O)Nc2ccc(NC(=O)Cn3cnnn3)cc2Cl)c(Cl)c1` [Compound 7040] has an IC50 of 42.5 nM.
Work on `CC(C)(C)c1ccc(-n2nnnc2SCC(=O)Nc2ccc(NC(=O)c3cccc(O)c3)cc2Cl)c(Cl)c1` [Compound 7012] yielded an IC50 of 128 nM.
For `CC(C)(C)c1ccc(-n2nnnc2SCC(=O)Nc2ccc(NC(=O)Nc3ccccc3)cc2Cl)c(Cl)c1` [Compound 7002], the IC50 was 187 nM.
`CC(C)(C)c1ccc(-n2nnnc2SCC(=O)Nc2ccc(NC(=O)Cc3ccc([N+](=O)[O-])cc3)cc2Cl)c(Cl)c1` [Compound 7025] gave an IC50 of 154 nM.
For `CC(C)(C)c1ccc(-n2nnnc2SCC(=O)Nc2ccc(NC(=O)Cc3ccccc3C(F)(F)F)cc2Cl)c(Cl)c1` [Compound 7045], the IC50 was 432 nM.
For `CC(C)(C)c1ccc(-n2nnnc2SCC(=O)Nc2ccc(NC(=O)NCc3ccccc3)cc2Cl)c(Cl)c1` [Compound 7008], the IC50 was 428 nM.
Work on `CC(C)(C)c1ccc(-n2nnnc2SCC(=O)Nc2ccc(NS(=O)(=O)c3cccs3)cc2Cl)c(Cl)c1` [Compound 7007] yielded an IC50 of 331 nM.
In the case of `CC(C)(C)c1ccc(-n2nnnc2SCC(=O)Nc2ccc(NC(=O)Cc3cc[n+]([O-])cc3)cc2Cl)c(Cl)c1` [Compound 7046], the IC50 was 140 nM.

Same assay, conditions: IC50 mut, K103N/Y181C mutant reverse transcriptase, enzymatic assay of Example 24
Molecule `CC(C)(C#Cc1ccc(NC(=O)CSc2nnnn2-c2cc(C(C)(C)C)ccc2Cl)c(Cl)c1)NC(=O)CN1CCC(C(=O)O)CC1` [Compound 4204] has a pIC50 of 7.46.
In the case of `CC(C)(C#Cc1ccc(NC(=O)CSc2nnnn2-c2cc(C(F)(F)F)cc(C3CC3)c2Cl)c(Cl)c1F)NC(=O)CN1CCNCC1` [Compound 4236], the pIC50 was 6.60.
For `CNCCOC(=O)COC(C)(C)C#Cc1ccc(NC(=O)CSc2nnnn2-c2ccc(C(C)(C)C)cc2Cl)c(Cl)c1` [Compound 4035], the pIC50 was 7.25.
Work on `CC(C)c1ccc(-n2nnnc2SCC(=O)Nc2ccc(C#CC(C)(C)C(=O)O)cc2Cl)c(Br)c1` [Compound 4099] yielded a pIC50 of 7.37.
`CC(C)(C#Cc1ccc(NC(=O)CSc2nnnn2-c2ccc(C(C)(C)C)cc2Cl)c(Cl)c1)C(=O)NCCN1CCOCC1` [Compound 4013] showed a pIC50 of 7.21.
`CC(C)(C)c1ccc(-n2nnnc2SCC(=O)Nc2ccc(C#CCOC(N)=O)cc2Cl)c(Cl)c1` [Compound 4034] showed a pIC50 of 8.05.
With `C=C(C)C#Cc1ccc(NC(=O)CSc2nnnn2-c2ccc(C3CC3)cc2Cl)c(Cl)c1` [Compound 4112] the pIC50 was 7.27.
With `CC(C)(N)C#Cc1ccc(NC(=O)CSc2nnnn2-c2ccc(C3CC3)cc2Cl)c(Cl)c1F` [Compound 4151] the pIC50 was 7.65.
`CNC(=O)COC(C)(C)C#Cc1ccc(NC(=O)CSc2nnnn2-c2ccc(C(C)(C)C)cc2Cl)c(Cl)c1` [Compound 4051] gave a pIC50 of 7.46.
With `CC(C)(C#Cc1ccc(NC(=O)CSc2nnnn2-c2ccc(C3CC3)cc2Cl)c(Cl)c1)C(=O)NS(=O)(=O)c1ccccc1` [Compound 4183] the pIC50 was 7.21.
Molecule `CC(C)(C#Cc1ccc(NC(=O)CSc2nnnn2-c2ccc(C3CC3)cc2Cl)c(Cl)c1)NC(=O)c1ccccc1` [Compound 4106] has a pIC50 of 7.72.
`CC(C)(C#Cc1ccc(NC(=O)CSc2nnnn2-c2ccc(C3CC3)cc2Cl)c(Cl)c1F)NC(=O)c1cc[n+]([O-])cc1` [Compound 4157] gave a pIC50 of 8.23.
In the case of `CC(C)(C)c1ccc(-n2nnnc2SCC(=O)Nc2ccc(C#Cc3ccccc3)cc2Cl)c(Cl)c1` [Compound 4002], the pIC50 was 6.57.
With `Cc1cc(C#CC(C)(C)C(=O)O)ccc1NC(=O)CSc1nnnn1-c1ccc(C(C)(C)C)cc1Cl` [Compound 4057] the pIC50 was 7.02.
Molecule `CC(C)(C#Cc1ccc(NC(=O)CSc2nnnn2-c2ccc(C3CC3)cc2Cl)c(Cl)c1)C(=O)NC(C)(C)C(=O)O` [Compound 4144] has a pIC50 of 7.09.
Work on `CC(C)(C#Cc1ccc(NC(=O)CSc2nnnn2-c2cc(Cl)ccc2Cl)c(Cl)c1)NC(=O)CN1CCNCC1` [Compound 4194] yielded a pIC50 of 7.35.
In the case of `CC(C)(C#Cc1ccc(NC(=O)CSc2nnnn2-c2ccc(C3CC3)cc2Cl)c(Cl)c1)C(=O)NS(=O)(=O)C1CC1` [Compound 4184], the pIC50 was 7.52.
`CN(C)CC(=O)NC(C)(C)C#Cc1ccc(NC(=O)CSc2nnnn2-c2ccc(C3CC3)cc2Cl)c(Cl)c1` [Compound 4087] gave a pIC50 of 7.67.
For `CC(C)(O)C#Cc1ccc(NC(=O)CSc2nnnn2-c2cc(C(C)(C)C)ccc2Cl)c(Cl)c1` [Compound 4199], the pIC50 was 7.49.
`CC(C)(C#Cc1ccc(NC(=O)CSc2nnnn2-c2ccc(C(C)(C)C)cc2Cl)c(Cl)c1F)C(=O)O` [Compound 4122] gave a pIC50 of 7.81.
`CC(C)(C#Cc1ccc(NC(=O)CSc2nnnn2-c2cc(C(F)(F)F)ccc2Cl)c(Cl)c1)NC(=O)c1cc[n+]([O-])cc1` [Compound 4120] gave a pIC50 of 7.76.
`CC(C)(C#Cc1ccc(NC(=O)CSc2nnnn2-c2ccc(C3CC3)cc2Cl)c(Cl)c1)NCc1nccs1` [Compound 4129] was tested, and the pIC50 was 7.81.
In the case of `CN(C)S(=O)(=O)NC(=O)C(C)(C)C#Cc1ccc(NC(=O)CSc2nnnn2-c2ccc(C3CC3)cc2Cl)c(Cl)c1` [Compound 4185], the pIC50 was 7.26.
`CC(C)(C#Cc1ccc(NC(=O)CSc2nnnn2-c2cc(C3CC3)cc(C(F)(F)F)c2Cl)c(Cl)c1F)NC(=O)c1ccc[n+]([O-])c1` [Compound 4248] was tested, and the pIC50 was 7.52.

Same assay, conditions: IC50 mut, mutant reverse transcriptase, enzymatic assay of Example 24
Work on `CC(C)(C)c1ccc(-n2nnnc2SCC(=O)Nc2ccc(OCCN3CCOCC3)cc2Cl)c(Cl)c1` [Compound 3034] yielded a pIC50 of 6.95.
`CC(C)(C)c1ccc(-n2nnnc2SCC(=O)Nc2ccc(OCC(=O)Nc3ccc(O)cc3)cc2Cl)c(Cl)c1` [Compound 5013] showed a pIC50 of 6.82.
With `CC(C)(C)c1ccc(-n2nnnc2SCC(=O)Nc2ccc(-c3ccc(S(C)(=O)=O)cc3)cc2Cl)c(Cl)c1` [Compound 2027] the pIC50 was 7.64.
With `CC(C)(C)c1ccc(-n2nnnc2SCC(=O)Nc2ccc(S(=O)(=O)NCCO)cc2Cl)c(Cl)c1` [Compound 3027] the pIC50 was 7.09.
In the case of `CC(C)(C)c1ccc(-n2nnnc2SCC(=O)Nc2ccc(OCC(=O)NCC(=O)O)cc2Cl)c(Cl)c1` [Compound 5020], the pIC50 was 6.79.
`Cn1cc(NC(=O)COc2ccc(NC(=O)CSc3nnnn3-c3ccc(C(C)(C)C)cc3Cl)c(Cl)c2)cc1C(=O)O` [Compound 5029] showed a pIC50 of 7.47.
In the case of `Cc1ccc(-n2nnnc2SCC(=O)Nc2ccc(-c3cscn3)cc2Cl)c(Cl)c1` [Compound 3014], the pIC50 was 6.85.
`CNS(=O)(=O)c1ccc(NC(=O)CSc2nnnn2-c2ccc(C(C)(C)C)cc2Cl)c(Cl)c1` [Compound 3021] was tested, and the pIC50 was 7.20.
`O=C(COc1ccc(NC(=O)CSc2nnnn2-c2ccc(C3CC3)cc2Cl)c(Cl)c1)NCCc1cccc[n+]1[O-]` [Compound 5038] was tested, and the pIC50 was 6.25.
In the case of `Cc1ccc(-n2nnnc2SCC(=O)Nc2ccc(-c3ccc(C(=O)O)cc3)cc2Cl)c(Cl)c1` [Compound 2002], the pIC50 was 7.28.
With `CN1CCN(NS(=O)(=O)c2ccc(NC(=O)CSc3nnnn3-c3ccc(C4CC4)cc3Cl)c(Cl)c2)CC1` [Compound 3037] the pIC50 was 6.95.
`Cc1ccc(-n2nnnc2SCC(=O)Nc2ccc(/C=C/C(=O)O)cc2Cl)c(Cl)c1` [Compound 3006] was tested, and the pIC50 was 6.58.
In the case of `O=C(COc1ccc(NC(=O)CSc2nnnn2-c2ccc(C3CC3)cc2Cl)c(Cl)c1)NCCc1ccc[n+]([O-])c1` [Compound 5039], the pIC50 was 6.32.
In the case of `O=C(CSc1nnnn1-c1ccc(C2CC2)cc1Cl)Nc1ccc(-c2ccc(OCCN3CCCCC3)cc2)cc1Cl` [Compound 2047], the pIC50 was 7.20.
`CC(C)(C)c1ccc(-n2nccc2SCC(=O)Nc2ccc(-c3ccc(CC(=O)O)cc3)cc2Cl)c(Cl)c1` [Compound 1006] showed a pIC50 of 6.67.
For `O=C(CSc1nnnn1-c1ccc(C2CC2)cc1Cl)Nc1ccc(C(=O)NCCc2cc[n+]([O-])cc2)cc1Cl` [Compound 6035], the pIC50 was 7.41.
`CC(C)(C)c1ccc(-n2nnnc2SCC(=O)Nc2ccc(C(=O)NC3CC3)cc2Cl)c(Cl)c1` [Compound 6002] showed a pIC50 of 7.51.
Work on `CN(C)S(=O)(=O)c1ccc(NC(=O)CSc2nnnn2-c2ccc(C(C)(C)C)cc2Cl)c(Cl)c1` [Compound 3025] yielded a pIC50 of 6.66.
`CC(C)(C#Cc1ccc(NC(=O)CSc2nnc(C3CC3)n2-c2ccc(C3CC3)cc2Cl)c(Cl)c1)C(=O)O` [Compound 1019] gave a pIC50 of 6.28.
`CC(C)(C)c1ccc(-n2nnnc2SCC(=O)Nc2ccc(C(=O)N3CCOCC3)cc2Cl)c(Cl)c1` [Compound 6005] showed a pIC50 of 6.25.
